Like-named read-outs stand apart in the source and are kept apart here. One block for each molecule: values may come before it.
What was measured:
MMP9 = test: PMA-induced MMP9 expression in U937 cells (gelatin zymography); assay type: cell-based, human; conditions: for MMP9 inhibition (%): test concentration not given, bracketed second value not explained
Protocol: Zymography. MMP9 enzyme activity is measured by gelatin zymography. 5 μl of supernatants were diluted with 5 μl Laemli sample buffer (Bio-Rad) and are loaded on a Novex® 10% Zymogram (Gelatin) gel (Invitrogen). After electrophoresis (90 min, 125 V, 35 mA, 5 W) gels are incubated with 1× Novex® zymogram renaturing buffer (Invitrogen) for 30 min at room temperature with gentle agitation. Gels are then rinsed in 1× Novex® zymogram developing buffer (Invitrogen) for 30 min at room temperature with gentle agitation prior to overnight incubation in the developing buffer at 37° C. After incubation the gels are stained using the colloidal blue staining kit (Invitrogen) with buffer containing 20% methanol and 70% distilled water to visualize the zymogen bands. Relevant band intensities are quantified by densitometric analysis using the UVP GelDoc-It system.
Effects of compounds on PMA-induced MMP9 expression in U937 cells. U937 cells are pretreated with compounds described herein for 1 hr, followed by PMA (50 ng/ml) treatment for 48 hrs. After 48 hrs supernatants are collected for zymography. MMP9 enzyme activity is measured by gelatin zymography. Data are expressed as fold changes against positive control treated with PMA only. Values represent means of three experiments±SEM.

TNFα = test: LPS-induced TNFα release in PMA-differentiated U937 cells (ELISA); assay type: cell-based, human; conditions: for IC50: LPS-induced TNFα release, PMA-differentiated U937, NA = inactive; for TNFα inhibition (%): test concentration not given
Protocol: (§1) Cytokine ELISA. LPS-induced IL-8, TNFα concentrations and TNFα-induced IL-8 concentrations are determined by sandwich ELISA according to the manufacturer's instructions (R&D Systems Europe). IC50 values for dexamethasone on IL-8 production are calculated using the computer program Prism 4.0 (GraphPad Software Inc., San Diego, Calif.) as a marker for steroid sensitivity.
(§2) Effects of compounds on LPS-induced IL-8 and TNFα release in PMA-differentiated U937 cells. PMA-differentiated macrophage-like cells are pretreated with compounds described herein for 1 hr, followed by LPS (100 ng/ml) stimulation for 4 hrs. LPS-induced IL-8 and TNFα release is evaluated by ELISA. Values represent means of three experiments±SEM.

Akt = test: H2O2-induced phosphorylation of Akt in PMA-differentiated U937 cells (western blot); assay type: cell-based, human
Protocol: Cell Lysis and Western Blotting. Whole cell protein extracts are prepared using modified RIPA buffer (50 mM Tris HCL pH 7.4, 0.5% NP-40, 0.25% Na-deoxycholate, 150 mM NaCl with freshly added complete protease (Roche). Phosphatase inhibitor (Active Motif) is also added when required. Protein concentration is determined using the Bio-Rad Protein Assay (Bio-Rad). Proteins are separated by SDS-PAGE under denaturing conditions, and electrotransferred to a nitrocellulose membrane (Amersham Biosciences, Amersham, U.K.) (Western blotting). The membranes are blocked in TBS containing 0.05% Tween 20 and 5% non-fat dried milk, and then incubated with anti-pAkt or Akt antibody followed by an horse radish peroxidase-conjugated secondary antibody (Dako UK Ltd., Ely, UK). Bound antibodies are visualized by ECL Plus (GE Healthcare UK Ltd., Little Chalfont, UK). The band density is calculated by densitometry (UVP Bioimaging Systems, Cambridge, UK) using Labworks software (Ultra-Violet Products, Cambridge, UK).
Effects of compounds on H2O2-induced phosphorylation of Akt in PMA-differentiated U937 cells. PMA-differentiated macrophage-like cells are pretreated with compounds described herein for 20 min. After H2O2 (1 mM) stimulation for 30 min, cells are lysed. Phosphorylation levels of Akt are measured by western blot. Data are calculated relative to total protein, and expressed as fold changes against positive control treated with H2O2 only. Values represent means of three or four experiments±SEM.

[1] = assay type: cell-based
Protocol: The human monocytic cell line U937 and the human type II alveolar epithelial carcinoma cell line A549 were obtained from the American Type Culture Collection (ATCC, Rockville, Md.). PBMCs from COPD patients were obtained in Brompton hospital and separated by AccuSPIN (Sigma-Aldrich, Poole, UK). Cells were cultured in complete growth medium (Sigma-Aldrich) (RPMI 1640 for U937, PBMCs, and Dulbecco's modified essential medium (DMEM) for A549) supplemented with 10% fetal bovine serum (FBS) and 1% L-glutamine at 37° C. in a humidified atmosphere with 5% CO2. U937 were differentiated into an adherent macrophage-like morphology by exposure to PMA (50 or 100 ng/ml) for 48 hrs in complete growth medium. Cell viability was assessed microscopically by trypan blue staining. Cell toxicity was determined by MTT assay as needed. This study was approved by the ethics committee of the Royal Brompton Hospitals, and all subjects gave written informed consent.

IL-8 = test: LPS-induced IL-8 release in PMA-differentiated U937 cells (ELISA); assay type: cell-based, human; conditions: for IC50: LPS-induced IL-8 release, PMA-differentiated U937, NA = inactive; for IL-8 inhibition (%): test concentration not given
Protocol: as §1, §2

U937 cells = test: H2O2-induced steroid insensitivity in U937 cells (dexamethasone IC50 on TNFα-induced IL-8); assay type: cell-based, human; conditions: highest concentration tested (100 μM); H2O2 200 μM
Protocol: as §1
Restoration of steroid sensitivity. U937 cells: U937 are treated with oxidative stress (H2O2, 200 μM or 0.15 dilution CSM (cigarette smoke conditioned medium)) and 4 hours later, stimulated with TNFα (10 ng/ml) in the presence of dexamethasone (10^−11-10^−6M). Supernatant and cells are collected 24 hrs after stimulation and IL-8 is measured by conventional ELISA. As the index of corticosteroid sensitivity, IC50 of dexamethasone is calculated. Test compounds are treated 20 min before oxidative stress treatment.
Effects of compounds on H2O2-induced steroid insensitivity in U937 cells. Cells stimulated with H2O2 (200 μM) overnight are incubated with compounds described herein for 30 min under H2O2 (200 μM) exposure. The cells are treated with dexamethasone (10^−11 to 10^−6 M) for 20 min, followed by the TNFα stimulation overnight. TNFα-induced IL-8 release is evaluated by ELISA and IC50 values for dexamethasone on IL-8 production are calculated using Prism. Data are expressed as fold changes against positive control treated with H2O2 only. Values represent means of four experiments±SEM. H2O2 exposure reduces dexamethasone sensitivity by approximately 4 fold based on calculated IC50 values of TNFα-induced IL-8 production.

HDAC activity = test: H2O2-induced reduction of HDAC activity in PMA-differentiated U937 cells; assay type: cell-based, human; conditions: for HDAC activity reached compared with untreated controls: H2O2 200 μM, comparators at highest doses tested; for restoration of H2O2-reduced HDAC activity (%): test concentration not given, bracketed second value not explained
Protocol: In cell HDAC assay. Cells are incubated with Fluor de Lys™ substrate for 1 hr before lyses. Total HDAC activity from whole cell extracts is measured using the HDAC Fluorimetric Assay/Drug Discovery Kit (BIOMOL® International, Inc., Plymouth Meeting, Pa.).
HDAC expression: In cell HDAC activity assay: U937 is differentiated to macrophage type cells by PMA for 3 days. HDAC fluorescent substrate (Biomol) is added before exposure of oxidative stress (H2O2, 200 μM) or Tobacco smoke conditioned medium for 4 hrs. HDAC activity is measured (Biomol kit). Compounds at different concentrations are treated 20 min before oxidative stress treatment.
PMA-differentiated macrophage-like cells are pretreated with compounds described herein for 20 min. After H2O2 (200 μM) stimulation for 4 hrs, HDAC activity is assayed. Data are expressed as fold changes against positive control treated with H2O2 only. Values represent means of four experiments±SEM.

S. pneumoniae ATCC 49619 = test: MIC; assay type: cell-based
H. influenzae LC002 = test: MIC; assay type: cell-based
[2] = test system: S. aureus ATCC 29213 (MSSA) MLS-S; test: MIC; assay type: cell-based
H. influenzae ATCC 49247 = test: MIC; assay type: cell-based
E. faecium ATCC 19434 = test: MIC; assay type: cell-based
K. pneumonia 13883 = test: MIC; assay type: cell-based; conditions: in µg/mL
S. aureus MRSA 33591 = test: MIC; assay type: cell-based
HDAC2 mRNA = test: Cigarette smoke extract-induced reduction of HDAC2 mRNA in A549 cells; assay type: cell-based, human
Protocol: Preparations of cigarette smoke extract. To prepare the cigarette smoke extract, two full-strength Marlboro cigarettes (filters removed; Phillip Morris USA, Richmond, Va.) are combusted through a modified 60-ml syringe apparatus, and the smoke passed through 20 ml of DMEM medium. Each cigarette generally yields five draws of the syringe (to the 60-ml mark), with each individual draw taking approximately 10 s to complete. Cigarette smoke extract is then passed through a 0.20-μm filter to sterilize and remove particulate matter and is used immediately unless otherwise stated.
Quantitative RT-PCR. Total RNA extraction and reverse transcription are performed using an RNeasy kit (QIAGEN, Crawley, UK) and a High-Capacity cDNA Reverse Transcription Kits (Applied Biosystems, Foster City, Calif.). Gene transcript level of HDAC2 (HS00231032_M1, Applied Biosystems, California, USA) and the house-keeping gene, guanine nucleotide binding protein beta polypeptide-2-like 1 (GNB2L1) (HS00272002_M1, Applied Biosystems) are quantified by real-time PCR using a TaqMan® Gene Expression Master Mix (Applied Biosystems) on a Rotor-Gene 6000 (Corbett Research, Cambridge, UK). Transcripts are analysed by the delta (D) CT method and variations in cDNA concentrations between different samples were corrected using GNB2L1.
Effects of macrolides on cigarette smoke extract-induced (CSE-induced) reduction of HDAC2 mRNA in A549 cells. Cells pretreated with compounds described herein for 30 min are exposed to CSE (0.15 O.D.) for 1 hr. The cells are washed twice and incubated with medium only for 4 hrs. Data are expressed as % reduction from baseline (left) or % increase from baseline under H2O2. Values represent means of three experiments±SEM. Example 33 reverses cigarette smoke extract-induced (CSE-induced) reduction of HDAC2 mRNA expression in A549 cells at concentrations of about 10 μM or greater, and with statistical significance of p<0.05 versus treatment with CSE only (one-way ANOVA with post hoc test, n=3) at doses of about 30 μM or greater.

- IC50 (TNFα; Homo sapiens, U-937): 426 ± 64 µM
- IC50 (IL-8; Homo sapiens, U-937): 507 ± 44 µM
SMILES: CC[C@H]1OC(=O)[C@H](C)[C@@H](O[C@H]2C[C@@](C)(OC)[C@@H](O)[C@H](C)O2)[C@H](C)[C@@H](O[C@@H]2O[C@H](C)C[C@H](N(C)C)[C@H]2O)[C@](C)(OC)C[C@@H](C)C(=O)[C@H](C)[C@@H](O)[C@]1(C)O [CLR, clarithromycin, reference compound]
- MMP9 inhibition (%) (MMP9): 8 (22) %
- inhibition of LPS-induced TNFα release compared with Example 33 (TNFα; LPS 100 ng/ml 4 hrs): at higher concentrations than Example 33
- TNFα inhibition (%) (TNFα): 21%
- inhibition of Akt phosphorylation compared with Example 33 (Akt; PMA-differentiated U937, H2O2 1 mM 30 min): only at much higher concentrations than Example 33
- Cell Toxicity (% cell death) ([1]; human): −7%
- inhibition of LPS-induced IL-8 release compared with Example 33 (IL-8; LPS 100 ng/ml 4 hrs): at higher concentrations than Example 33
- IL-8 inhibition (%) (IL-8): 17%
- restoration of dexamethasone sensitivity (U937 cells): None of ERY, CLR, or AZI restored dexamethasone sensitivity
- restoration of HDAC activity compared with Example 33 (HDAC activity; PMA-differentiated U937, H2O2 200 μM 4 hrs): only at much higher doses than Example 33
- HDAC activity reached compared with untreated controls (HDAC activity; PMA-differentiated U937): only restore HDAC activity to levels comparable to untreated controls
- restoration of H2O2-reduced HDAC activity (%) (HDAC activity): 14%

SMILES: CC[C@H]1OC(=O)[C@H](C)C(=O)[C@H](C)[C@@H](O[C@H]2C[C@@H](N(C)C)[C@H](O)[C@@H](C)O2)[C@@](C)(OC)C[C@@H](C)C(=O)[C@H](C)[C@H]2N(CCCCn3cc(-c4ccccn4)nn3)C(=O)O[C@]12C [Example 21]
- MMP9 inhibition (%) (MMP9): 49 (41) %
- MIC S. pneumoniae ATCC 49619 (S. pneumoniae ATCC 49619): > 64 µg/mL
- MIC H. influenzae LC002 (H. influenzae LC002): > 64 µg/mL
- TNFα inhibition (%) (TNFα): 14%
- Cell Toxicity (% cell death) ([1]; test concentration not given): 3%
- MIC S. aureus ATCC 29213 (MSSA) MLS-S [2]: > 64 µg/mL
- IL-8 inhibition (%) (IL-8): 59%
- MIC H. influenzae ATCC 49247 (H. influenzae ATCC 49247): > 64 µg/mL
- MIC E. faecium ATCC 19434 (E. faecium ATCC 19434): > 64 µg/mL
- restoration of H2O2-reduced HDAC activity (%) (HDAC activity): 36%
- MIC K. pneumonia 13883 (K. pneumonia 13883): >64
- MIC S. aureus MRSA 33591 (S. aureus MRSA 33591): > 64 µg/mL

SMILES: CCC1OC(=O)C(C)C(OC2CC(C)(OC)C(O)C(C)O2)C(C)C(OC2OC(C)CC(N(C)C)C2O)C(C)(O)CC(C)CN(C(C)=O)C(C)C2OC(=O)OC12C (centres unmarked) [Example 33]
- IC50 (MMP9; PMA-induced MMP9 expression, U937, NA = inactive): 56 ± 19 µM
- concentration at which PMA-induced MMP9 up-regulation is inhibited (MMP9; U937, pretreated 1 hr, PMA 50 ng/ml 48 hrs): ≥ 33 µM
- concentration at which inhibition of MMP9 up-regulation is statistically significant (MMP9; p<0.05 versus PMA only, n=3): ≥ 100 µM
- IC50 (TNFα): 97 ± 5 µM
- concentration at which LPS-induced TNFα release is inhibited (TNFα; pretreated 1 hr, LPS 100 ng/ml 4 hrs, p<0.01, n=3): ≥ 100 µM
- concentration at which inhibition of Akt phosphorylation is statistically significant (Akt; p<0.05 versus H2O2 only, n=3 or 4): ≥ 100 µM
- concentration at which CSE-induced reduction of HDAC2 mRNA expression is reversed (HDAC2 mRNA; A549, pretreated 30 min, CSE 0.15 O.D. 1 hr): ≥ 10 µM
- concentration at which reversal of HDAC2 mRNA reduction is statistically significant (HDAC2 mRNA; p<0.05 versus CSE only, n=3): ≥ 30 µM
- IC50 (IL-8): 95 ± 14 µM
- concentration at which LPS-induced IL-8 release is inhibited (IL-8; pretreated 1 hr, LPS 100 ng/ml 4 hrs, p<0.05, n=3): ≥ 100 µM
- HDAC activity reached compared with untreated controls (HDAC activity; PMA-differentiated U937): higher than untreated controls
- concentration at which the H2O2-induced reduction in HDAC activity is restored (HDAC activity; PMA-differentiated U937, pretreated 20 min, H2O2 200 μM 4 hrs): ≥ 10 µM
- concentration at which restoration of HDAC activity is statistically significant (HDAC activity; p<0.01 versus H2O2 only, n=4): ≥ 30 µM

From patent US9937194B1, “Compounds and methods for treating inflammatory diseases” (priority 2009, dated 2018)
